Source: ChEMBL document CHEMBL5316298, “Discovery of Amphiphilic Xanthohumol Derivatives as Membrane-Targeting Antimicrobials against Methicillin-Resistant Staphylococcus aureus” (J Med Chem, 2023)
≈ marks a conversion by molar mass, not a printed value. Calls of active or inactive are those of the source. The rule behind the calls is not given here.

Tests used:
Staphylococcus aureus [1] = assay: Antibacterial activity against methicillin-resistant Staphylococcus aureus 3 infected in KM mouse assessed as reduction in inflammatory cells in subcutaneous tissue at 5 mg/kg administered into skin infection site measured after 24 hrs by H and E staining based analysis; assay type: functional, organism-based
Staphylococcus aureus [2] = assay: Antibacterial activity against methicillin-resistant Staphylococcus aureus 3 infected in KM mouse assessed as reduction in bacterial load at infection site at 5 mg/kg administered into skin infection site measured after 24 hrs relative to control; assay type: functional; set-up: scale not given: the % may be the effect or the level left
Staphylococcus aureus [3] = assay: Antibacterial activity against methicillin-resistant Staphylococcus aureus 3 infected in KM mouse assessed as reduction in bacterial load at infection site by measuring colony forming units at 5 mg/kg administered into skin infection site measured after 24 hrs; assay type: functional
Staphylococcus aureus [4] = assay: Antibacterial activity against methicillin-resistant Staphylococcus aureus 3 infected in KM mouse assessed as reduction in abscesses on dorsal surface of skin at 5 mg/kg administered into skin infection site measured after 24 hrs; assay type: functional, organism-based
Staphylococcus aureus [5] = assay: Antibacterial activity against methicillin-resistant Staphylococcus aureus 3 infected in KM mouse assessed as reduction in abscesses inside the skin at 5 mg/kg administered into skin infection site measured after 24 hrs; assay type: functional, organism-based
Staphylococcus aureus [6] = assay: Antibacterial activity against methicillin-resistant Staphylococcus aureus 3 infected in KM mouse assessed as reduction in size of abscesses at 5 mg/kg administered into skin infection site measured after 24 hrs; assay type: functional, organism-based
[7] = Toxicity in KM mouse infected with methicillin-resistant Staphylococcus aureus 3 assessed as heart damage at 5 mg/kg administered into skin infection site measured after 24 hrs by H and E staining based analysis; assay type: organism-based; conditions: in vivo, topical_or_ocular
[8] = Toxicity in KM mouse infected with methicillin-resistant Staphylococcus aureus 3 assessed as liver damage at 5 mg/kg administered into skin infection site measured after 24 hrs by H and E staining based analysis; assay type: organism-based; conditions: in vivo, topical_or_ocular
[9] = Toxicity in KM mouse infected with methicillin-resistant Staphylococcus aureus 3 assessed as spleen damage at 5 mg/kg administered into skin infection site measured after 24 hrs by H and E staining based analysis; assay type: organism-based; conditions: in vivo, topical_or_ocular
[10] = Toxicity in KM mouse infected with methicillin-resistant Staphylococcus aureus 3 assessed as lung damage at 5 mg/kg administered into skin infection site measured after 24 hrs by H and E staining based analysis; assay type: organism-based; conditions: in vivo, topical_or_ocular
[11] = Toxicity in KM mouse infected with methicillin-resistant Staphylococcus aureus 3 assessed as kidneys damage at 5 mg/kg administered into skin infection site measured after 24 hrs by H and E staining based analysis; assay type: organism-based; conditions: in vivo, topical_or_ocular
[12] = Toxicity in KM mouse infected with methicillin-resistant Staphylococcus aureus 3 assessed as histopathological abnormalities in heart at 5 mg/kg administered into skin infection site measured after 24 hrs by H and E staining based analysis; assay type: organism-based; conditions: in vivo, topical_or_ocular
[13] = Toxicity in KM mouse infected with methicillin-resistant Staphylococcus aureus 3 assessed as histopathological abnormalities in spleen at 5 mg/kg administered into skin infection site measured after 24 hrs by H and E staining based analysis; assay type: organism-based; conditions: in vivo, topical_or_ocular
[14] = Toxicity in KM mouse infected with methicillin-resistant Staphylococcus aureus 3 assessed as histopathological abnormalities in lungs at 5 mg/kg administered into skin infection site measured after 24 hrs by H and E staining based analysis; assay type: organism-based; conditions: in vivo, topical_or_ocular
[15] = Toxicity in KM mouse infected with methicillin-resistant Staphylococcus aureus 3 assessed as multifocal enlargement of hepatocytes with cytoplasmic foamy swelling at 5 mg/kg administered into skin infection site measured after 24 hrs by H and E staining based analysis; assay type: organism-based; conditions: in vivo, topical_or_ocular
[16] = Toxicity in KM mouse infected with methicillin-resistant Staphylococcus aureus 3 assessed as swelling of renal tubular epithelial cells with granular degeneration at 5 mg/kg administered into skin infection site measured after 24 hrs by H and E staining based analysis; assay type: organism-based; conditions: in vivo, topical_or_ocular
[17] = Toxicity in KM mouse infected with methicillin-resistant Staphylococcus aureus 3 assessed as vacuolar degeneration in the kidneys at 5 mg/kg administered into skin infection site measured after 24 hrs by H and E staining based analysis; assay type: organism-based; conditions: in vivo, topical_or_ocular
Staphylococcus aureus [18] = assay: Induction of drug resistance in Staphylococcus aureus ATCC 29213 assessed as fold increase in MIC at 0.5 times MIC measured for 20 passages relative to control; assay type: functional
Staphylococcus aureus [19] = assay: Antibacterial activity against Staphylococcus aureus ATCC 29213 incubated for 16 to 18 hrs by CLSI-based microbroth dilution method; assay type: functional; conditions: time 16-18 hrs
Staphylococcus aureus [20] = assay: Antibacterial activity against methicillin-resistant Staphylococcus aureus clinical isolate 1 incubated for 16 to 18 hrs by CLSI-based microbroth dilution method; assay type: functional; conditions: time 16-18 hrs
Staphylococcus aureus [21] = assay: Antibacterial activity against methicillin-resistant Staphylococcus aureus clinical isolate 2 incubated for 16 to 18 hrs by CLSI-based microbroth dilution method; assay type: functional; conditions: time 16-18 hrs
Staphylococcus aureus [22] = assay: Antibacterial activity against methicillin-resistant Staphylococcus aureus clinical isolate 3 incubated for 16 to 18 hrs by CLSI-based microbroth dilution method; assay type: functional; conditions: time 16-18 hrs
Staphylococcus aureus [23] = assay: Antibacterial activity against methicillin-resistant Staphylococcus aureus clinical isolate 4 incubated for 16 to 18 hrs by CLSI-based microbroth dilution method; assay type: functional; conditions: time 16-18 hrs
Staphylococcus aureus [24] = assay: Antibacterial activity against methicillin-resistant Staphylococcus aureus clinical isolate 5 incubated for 16 to 18 hrs by CLSI-based microbroth dilution method; assay type: functional; conditions: time 16-18 hrs
Staphylococcus aureus [25] = assay: Antibacterial activity against methicillin-resistant Staphylococcus aureus clinical isolate 6 incubated for 16 to 18 hrs by CLSI-based microbroth dilution method; assay type: functional; conditions: time 16-18 hrs
Staphylococcus aureus [26] = assay: Antibacterial activity against methicillin-resistant Staphylococcus aureus clinical isolate 7 incubated for 16 to 18 hrs by CLSI-based microbroth dilution method; assay type: functional; conditions: time 16-18 hrs
Staphylococcus aureus [27] = assay: Antibacterial activity against methicillin-resistant Staphylococcus aureus clinical isolate 8 incubated for 16 to 18 hrs by CLSI-based microbroth dilution method; assay type: functional; conditions: time 16-18 hrs
Staphylococcus aureus [28] = assay: Antibacterial activity against methicillin-resistant Staphylococcus aureus clinical isolate 9 incubated for 16 to 18 hrs by CLSI-based microbroth dilution method; assay type: functional; conditions: time 16-18 hrs
Staphylococcus aureus [29] = assay: Antibacterial activity against methicillin-resistant Staphylococcus aureus clinical isolate 10 incubated for 16 to 18 hrs by CLSI-based microbroth dilution method; assay type: functional; conditions: time 16-18 hrs
[30] = Hemolytic activity in sheep erythrocytes incubated for 1 hr by absorbance based analysis; assay type: toxicity, cell-based, Ovis aries, Erythrocyte
Cell membrane = assay: Induction of membrane depolarization in methicillin-resistant Staphylococcus aureus 3 assessed as increase in fluorescence intensity at 32 ug/ml measured every 2 mins for 20 mins by SYTOX-green dye based fluorescence assay; assay type: subcellular; conditions: dose 32.0 µg/ml
Staphylococcus aureus [31] = assay: Antibacterial activity against Staphylococcus aureus ATCC 29213 assessed as inhibition of bacterial growth by CLSI based microdilution broth assay; assay type: functional
Staphylococcus aureus [32] = assay: Antibacterial activity against Staphylococcus aureus D5 assessed as inhibition of bacterial growth by CLSI based microdilution broth assay; assay type: functional
Staphylococcus aureus [33] = assay: Antibacterial activity against Staphylococcus aureus A7 assessed as inhibition of bacterial growth by CLSI based microdilution broth assay; assay type: functional

SMILES | MIC (Staphylococcus aureus [19]) [µg/mL] | MIC (Staphylococcus aureus [20]) [µg/mL] | MIC (Staphylococcus aureus [21]) [µg/mL] | MIC (Staphylococcus aureus [22]) [µg/mL] | MIC (Staphylococcus aureus [23]) [µg/mL] | MIC (Staphylococcus aureus [24]) [µg/mL] | MIC (Staphylococcus aureus [25]) [µg/mL] | MIC (Staphylococcus aureus [26]) [µg/mL] | MIC (Staphylococcus aureus [27]) [µg/mL] | MIC (Staphylococcus aureus [28]) [µg/mL] | MIC (Staphylococcus aureus [29]) [µg/mL] | HC50 at 1 h [30] [µg/mL] | further results
CN[C@H](CC(C)C)C(=O)N[C@H]1C(=O)N[C@@H](CC(N)=O)C(=O)N[C@H]2C(=O)N[C@H]3C(=O)N[C@H](C(=O)N[C@H](C(=O)O)c4cc(O)cc(O)c4-c4cc3ccc4O)[C@H](O)c3ccc(c(Cl)c3)Oc3cc2cc(c3O[C@@H]2O[C@H](CO)[C@@H](O)[C@H](O)[C@H]2O[C@H]2C[C@](C)(N)[C@H](O)[C@H](C)O2)Oc2ccc(cc2Cl)[C@H]1O [VANCOMYCIN] |  |  |  |  |  |  |  |  |  |  |  |  | Activity (Staphylococcus aureus [1]): Active; Activity (Staphylococcus aureus [2]): 99.479%; Activity (Staphylococcus aureus [3]): 2.2 log10CFU/g; Activity (Staphylococcus aureus [4]): inactive; Activity (Staphylococcus aureus [5]): inactive; Activity (Staphylococcus aureus [6]): Active; Activity [7]: Non-Toxic; Activity [8]: Non-Toxic; Activity [9]: Non-Toxic; Activity [10]: Non-Toxic; Activity [11]: Non-Toxic; Activity [12]: Non-Toxic; Activity [13]: Non-Toxic; Activity [14]: Non-Toxic; Activity [15]: Non-Toxic; Activity [16]: Non-Toxic; Activity [17]: Non-Toxic
CCn1cc(C(=O)O)c(=O)c2cc(F)c(N3CCNCC3)cc21 |  |  |  |  |  |  |  |  |  |  |  |  | fold change (FC) (Staphylococcus aureus [18]): 128
CCCCNC(=O)C[N+](C)(C)CCCCOc1ccc(/C=C/C(=O)c2c(OC)cc3c(c2O)C=CC(C)(C)O3)cc1.[Br-] | 4 | 2 | 2 | 2 | 2 | 2 | 2 | 2 | 4 | 2 | 4 | 220 | 
COc1cc2c(c(O)c1C(=O)/C=C/c1ccc(O)cc1)C=CC(C)(C)O2 [XANTHOHUMOL C] | 4 (≈ 11.4 µM) | 4 (≈ 11.4 µM) | 4 (≈ 11.4 µM) | 4 (≈ 11.4 µM) | 4 (≈ 11.4 µM) | 4 (≈ 11.4 µM) | 8 (≈ 22.7 µM) | 4 (≈ 11.4 µM) | 4 (≈ 11.4 µM) | 8 (≈ 22.7 µM) | 4 (≈ 11.4 µM) | 222 | 
CCCCCCNC(=O)C[N+](C)(C)CCCOc1ccc(/C=C/C(=O)c2c(OC)cc3c(c2O)C=CC(C)(C)O3)cc1.[Br-] | 2 | 2 | 2 | 2 | 2 | 2 | 4 | 4 | 2 | 1 | 1 | 97.9 | 
COc1cc2c(c(O)c1C(=O)/C=C/c1ccc(OCCCCC[N+](C)(C)CC(=O)N3CCSCC3)cc1)C=CC(C)(C)O2.[Br-] | 4 | 8 | 4 | 4 | 4 | 4 | 2 | 4 | 4 | 1 | 1 | 210 | 
CCCN(CCC)C(=O)C[N+](C)(C)CCCCCOc1ccc(/C=C/C(=O)c2c(OC)cc3c(c2O)C=CC(C)(C)O3)cc1.[Br-] | 2 | 4 | 4 | 2 | 2 | 2 | 1 | 2 | 2 | 1 | 2 | 436 | 
COc1cc2c(c(O)c1C(=O)/C=C/c1ccc(OCCCCC[N+](C)(C)CC(=O)N(C(C)C)C(C)C)cc1)C=CC(C)(C)O2.[Br-] | 2 | 2 | 2 | 2 | 1 | 2 | 1 | 2 | 4 | 2 | 2 | 229 | 
CC[C@H](C)[C@H](NC(=O)CN)C(=O)NCC(=O)N[C@@H](C)C(=O)N[C@H](C(=O)N[C@@H](CC(C)C)C(=O)N[C@@H](CCCCN)C(=O)N[C@H](C(=O)N[C@@H](CC(C)C)C(=O)N[C@H](C(=O)N[C@H](C(=O)NCC(=O)N[C@@H](CC(C)C)C(=O)N1CCC[C@H]1C(=O)N[C@@H](C)C(=O)N[C@@H](CC(C)C)C(=O)N[C@H](C(=O)N[C@@H](CO)C(=O)N[C@@H](Cc1c[nH]c2ccccc12)C(=O)N[C@H](C(=O)N[C@@H](CCCCN)C(=O)N[C@@H](CCCNC(=N)N)C(=O)N[C@@H](CCCCN)C(=O)N[C@@H](CCCNC(=N)N)C(=O)N[C@@H](CCC(N)=O)C(=O)N[C@@H](CCC(N)=O)C(N)=O)[C@@H](C)CC)[C@@H](C)CC)[C@@H](C)O)[C@@H](C)O)C(C)C)C(C)C |  |  |  |  |  |  |  |  |  |  |  |  | Activity (Cell membrane): Active
COc1cc2c(c(O)c1C(=O)/C=C/c1ccc(OCCCCC[N+](C)(C)CC(=O)N(CC(C)C)CC(C)C)cc1)C=CC(C)(C)O2.[Br-] | 2 | 4 | 1 | 2 | 2 | 2 | 1 | 2 | 2 | 2 | 2 | 374 | 
COc1cc2c(c(O)c1C(=O)/C=C/c1ccc(OCCCC[N+](C)(C)CC(=O)N3CCOCC3)cc1)C=CC(C)(C)O2.[Br-] | 8 | 8 | 8 | 4 | 8 | 4 | 4 | 4 | 4 | 8 | 16 | > 1280 | 
COc1cc(O)c(CC=C(C)C)c(O)c1C(=O)/C=C/c1ccc(O)cc1 [XANTHOHUMOL] | 16 (≈ 45.1 µM) | 8 (≈ 22.6 µM) | 8 (≈ 22.6 µM) | 8 (≈ 22.6 µM) | 4 (≈ 11.3 µM) | 8 (≈ 22.6 µM) | 16 (≈ 45.1 µM) | 8 (≈ 22.6 µM) | 8 (≈ 22.6 µM) | 8 (≈ 22.6 µM) | 8 (≈ 22.6 µM) | 196 | MIC (Staphylococcus aureus [31]): 15.6 µg/mL (≈ 44 µM); MIC (Staphylococcus aureus [32]): 15.6 µg/mL (≈ 44 µM); MIC (Staphylococcus aureus [33]): 15.6 µg/mL (≈ 44 µM)
